Data: ChEMBL document CHEMBL4673331 (J Med Chem, 2020)
pIC50: −log10 of the molar value. Converted amounts (≈) assume the structure as drawn. The source made the active and inactive calls. The rule behind the calls is not given here.

Assays:
[1] = biological target: T1, Mucosa-associated lymphoid tissue lymphoma translocation protein 1 (Homo sapiens, UniProt Q9UDY8); experiment: Allosteric inhibition of MALT1 in human OCI-LY3 cells assessed as reduction in BCL10 cleavage measured after 24 hrs by ELISA; format: cell-based, OCILY3
T1 sequence (Q9UDY8 whole entry): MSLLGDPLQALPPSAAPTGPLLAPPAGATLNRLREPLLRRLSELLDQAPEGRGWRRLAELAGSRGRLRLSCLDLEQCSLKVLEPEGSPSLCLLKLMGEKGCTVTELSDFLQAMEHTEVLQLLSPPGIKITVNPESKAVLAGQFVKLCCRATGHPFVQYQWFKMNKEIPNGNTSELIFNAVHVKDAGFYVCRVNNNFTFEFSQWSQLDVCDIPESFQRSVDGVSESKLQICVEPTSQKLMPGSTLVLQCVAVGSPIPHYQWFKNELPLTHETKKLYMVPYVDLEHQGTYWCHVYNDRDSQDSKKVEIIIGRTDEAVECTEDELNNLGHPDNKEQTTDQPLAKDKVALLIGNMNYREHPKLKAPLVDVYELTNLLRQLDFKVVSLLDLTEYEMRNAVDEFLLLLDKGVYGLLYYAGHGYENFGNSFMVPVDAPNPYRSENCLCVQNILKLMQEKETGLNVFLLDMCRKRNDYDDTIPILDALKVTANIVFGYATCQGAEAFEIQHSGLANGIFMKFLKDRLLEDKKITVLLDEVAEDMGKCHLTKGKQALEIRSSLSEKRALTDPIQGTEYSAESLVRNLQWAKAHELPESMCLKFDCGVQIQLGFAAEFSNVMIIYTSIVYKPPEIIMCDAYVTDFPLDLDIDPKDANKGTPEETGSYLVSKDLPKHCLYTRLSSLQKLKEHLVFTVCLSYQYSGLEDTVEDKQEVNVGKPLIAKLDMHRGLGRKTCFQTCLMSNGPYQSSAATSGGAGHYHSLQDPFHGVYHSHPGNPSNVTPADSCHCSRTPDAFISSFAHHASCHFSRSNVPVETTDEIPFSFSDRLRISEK

[2] = Drug concentration in Balb/c mouse blood at 10 mg/kg, po BID administered at 12 hrs interval immunized post 1 hr first treatment measured after 12 hrs post second dose by LC-MS/MS analysis; format: ADME, organism-based; details: whole blood, read-out: Drug uptake
[3] = Dose normalized AUC (0 to 24 hrs) in Balb/c mouse at 3 mg/kg, po administered as cassette dosing; format: ADME, organism-based; details: in vivo
[4] = Clearance in Sprague-Dawley rat at 1 mg/kg, iv administered as cassette dosing; format: ADME, organism-based; details: in vivo
[5] = Drug concentration in Balb/c mouse blood at 10 mg/kg, po BID by LC-MS/MS analysis; format: ADME, organism-based; details: in vivo, read-out: Drug uptake
BJAB = experiment: Antiproliferation activity against human BJAB cells assessed as reduction in cell viability incubated for 14 days by resazurin dye-based fluorescence analysis; format: functional; details: 336 h
[6] = Half-life in Balb/c mouse at 1 mg/kg, iv administered as cassette dosing; format: ADME, organism-based; details: in vivo
[7] = biological target: Baculoviral IAP repeat-containing protein 3/Mucosa-associated lymphoid tissue lymphoma translocation protein 1 (Homo sapiens, UniProt Q13489+Q9UDY8); experiment: Allosteric inhibition of MALT1-cIAP2 (unknown origin) fusion protein expressed in HEK293 cells assessed as reduction in NF-KappaB activation by luciferase reporter gene assay; format: cell-based
[8] = biological target: T2, Mucosa-associated lymphoid tissue lymphoma translocation protein 1 (Homo sapiens) (UniProt Q9UDY8); experiment: Allosteric inhibition of MALT1 protease activity in human OCI-LY3 cells assessed as accumulation of uncleaved substrate CYLD incubated for 24 hrs by Western blot analysis; format: cell-based; details: OCILY3, filed as negative allosteric modulator, dose 50-5000 nM
T2 sequence (whole entry): T1 sequence (Q9UDY8 whole entry)

[9] = Toxicity in Balb/c mouse assessed as change in body weight at 10 to 100 mg/kg, po BID administered at 12 hrs interval immunized post 1 hr first treatment; format: organism-based; details: in vivo, dose 10-100 mg/kg
Mus musculus [10] = experiment: Anti-autoimmune disease activity in Balb/c mouse assessed as reduction in anti-DNP induced IgG producing B cells at 30 mg/kg, po administered twice at 12 hrs interval immunized post 1 hr first treatment measured after 8 days by ELISA relative to control; format: functional, organism-based; details: time 8.0 day
[11] = Dose normalized AUC (0 to 24 hrs) in Sprague-Dawley rat at 3 mg/kg, po administered as cassette dosing; format: ADME, organism-based; details: in vivo
[12] = Drug concentration in Balb/c mouse blood at 30 mg/kg, po BID administered at 12 hrs interval immunized post 1 hr first treatment measured after 12 hrs post second dose by LC-MS/MS analysis; format: ADME, organism-based; details: whole blood, read-out: Drug uptake
[13] = biological target: T2, Mucosa-associated lymphoid tissue lymphoma translocation protein 1 (Homo sapiens); experiment: Allosteric inhibition of MALT1 in human OCI-LY3 cells assessed as repression of IRF4 at 50 to 5000 nM incubated for 24 hrs by Western blot analysis; format: cell-based; details: OCILY3, filed as negative allosteric modulator, dose 50-5000 nM
TMD8 = experiment: Antitumor activity against human TMD8 cells xenografted in SCID mouse assessed as tumor stasis at 100 mg/kg, po BID administered for 2 weeks; format: functional, organism-based
[14] = Inhibition of mixed lymphocyte reaction in rat PBMC cells assessed as reduction in [3H]-thymidine incorporation measured after 5 days in presence of Il-7 by microbeta counting method; format: cell-based
[15] = Protein binding in mouse plasma; format: ADME, cell-free; details: read-out: PPB (converted)
[16] = Half-life in Sprague-Dawley rat at 1 mg/kg, iv administered as cassette dosing; format: ADME, organism-based; details: in vivo
[17] = Solubility of the compound at pH 6.8; format: physicochemical; details: buffer
[18] = Apparent permeability across apical to basolateral side in human Caco-2 cells; format: ADME, cell-based
[19] = Clearance in Balb/c mouse at 1 mg/kg, iv administered as cassette dosing; format: ADME, organism-based; details: in vivo
[20] = biological target: T2, Mucosa-associated lymphoid tissue lymphoma translocation protein 1 (Homo sapiens); experiment: Allosteric inhibition of MALT1 protease activity in human OCI-LY3 cells assessed as accumulation of uncleaved substrate […] incubated for 24 hrs by Western blot analysis; format: cell-based; details: OCILY3, filed as negative allosteric modulator, dose 50-5000 nM
[21] = Volume of distribution at steady state in Balb/c mouse at 1 mg/kg, iv administered as cassette dosing; format: ADME, organism-based; details: in vivo, read-out: Vdss
[22] = biological target: T1, Mucosa-associated lymphoid tissue lymphoma translocation protein 1; experiment: Allosteric inhibition of MALT1-mediated T cell activation in human Jurkat cells assessed as decrease in PMA induced IL2 activation preincubated for 1 hr followed by addition of PMA measured after 5.5 hrs by luciferase reporter gene assay; format: cell-based
[23] = Oral bioavailability in Sprague-Dawley rat at 3 mg/kg administered as cassette dosing; format: ADME, organism-based; details: in vivo
[24] = Toxicity in Balb/c mouse assessed as histopathological changes at 10 to 100 mg/kg, po BID administered at 12 hrs interval immunized post 1 hr first treatment; format: organism-based; details: in vivo, dose 10-100 mg/kg
Mus musculus [25] = experiment: Immunomodulatory activity in human TMD8 cells xenografted SCID mouse assessed as decrease in IL-10 production in tumor at 100 mg/kg, po; format: functional, organism-based
[26] = Drug concentration in Balb/c mouse blood at 100 mg/kg, po BID administered at 12 hrs interval immunized post 1 hr first treatment measured after 12 hrs post second dose by LC-MS/MS analysis; format: ADME, organism-based; details: whole blood, read-out: Drug uptake
[27] = Inhibition of mixed lymphocyte reaction in human PBMC cells assessed as reduction in [3H]-thymidine incorporation measured after 5 days in presence of Il-7 by microbeta counting method; format: functional, cell-based

Sequence of Baculoviral IAP repeat-containing protein 3/Mucosa-associated lymphoid tissue lymphoma translocation protein 1 (Q13489 whole entry, one chain of several, the tested form may be a part): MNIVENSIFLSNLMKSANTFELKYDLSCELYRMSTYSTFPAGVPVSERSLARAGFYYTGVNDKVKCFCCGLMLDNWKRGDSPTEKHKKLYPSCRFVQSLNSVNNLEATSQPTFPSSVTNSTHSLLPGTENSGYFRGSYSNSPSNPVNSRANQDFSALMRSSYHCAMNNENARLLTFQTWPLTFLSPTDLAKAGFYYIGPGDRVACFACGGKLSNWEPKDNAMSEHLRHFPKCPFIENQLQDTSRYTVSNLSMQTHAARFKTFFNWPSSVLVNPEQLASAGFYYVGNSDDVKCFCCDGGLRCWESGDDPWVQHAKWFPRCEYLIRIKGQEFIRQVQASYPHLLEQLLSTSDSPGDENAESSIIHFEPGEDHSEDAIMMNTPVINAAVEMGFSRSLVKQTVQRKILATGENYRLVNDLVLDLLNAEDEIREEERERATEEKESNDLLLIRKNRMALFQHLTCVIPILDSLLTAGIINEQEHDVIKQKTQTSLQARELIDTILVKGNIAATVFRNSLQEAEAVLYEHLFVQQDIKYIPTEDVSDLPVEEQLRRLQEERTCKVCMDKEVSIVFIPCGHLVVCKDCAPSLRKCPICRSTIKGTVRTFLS

- pIC50 [1]: 6.80
- concentration at 12 h [2]: 40 nM
- AUC/dose [3]: 3100 nM·h
- clearance [4]: 41 mL/min/kg
- concentration [5]: 2600 nM
- half-life [6]: 1.9 h
- pIC50 [7]: 6.85
- inhibition [8]: Dose-dependent effect
- AUC/dose [11]: 547 nM·h
- concentration at 12 h [12]: 120 nM
- inhibition [13]: Active
- pIC50 [14]: 6.22
- fraction unbound [15]: 0.011
- half-life [16]: 3.2 h
- solubility [17]: 266 µM (≈ 125 µg/mL)
- Papp A→B [18]: 1.47 ×10⁻⁶ cm/s
- clearance [19]: 11 mL/min/kg
- inhibition [20]: Dose-dependent effect
- Vd [21]: 1.5 L/kg
- pIC50 [22]: 6.74
- bioavailability [23]: 61%
- concentration at 12 h [26]: 690 nM
- pIC50 [27]: 6.72
SMILES: C[C@H]1COC[C@H](C)N1c1c(NC(=O)Nc2ccnc(C(F)(F)F)c2)cnc2cc(Cl)nn12
- pIC50 (BJAB): 5.70
- Activity [9]: Non-Toxic
- Activity (Mus musculus [10]): Active
- Activity (TMD8): Active
- Activity [24]: Non-Toxic
- Activity (Mus musculus [25]): Active
